Data set [1] in a line: Plasma protein binding, equilibrium dialysis (human). Format: in vitro ADME. Conditions: pH 7.4, human plasma, read-out: fu plasma (h). Here is the method: page 13: at half log concentrations in DMSO were further diluted in assay buffer. The compounds or DMSO vehicle were added to cells and incubated for 2.5 min and an EC20 concentration of glutamate was added and incubated for 1 min. An ECmax concentration of glutamate was also added to cells that were incubated with DMSO vehicle to accurately calculate the EC20 calcium response. Data were normalized by subtracting the basal florescent peak before EC20 agonist addition from the maximal peak elicited by EC20 agonist and PAMs. Using GraphPad Prism 5.0, the concentration response curves were generated and the potencies of the mGlu1 PAMs were determined. DMPK Methods Plasma protein binding: The protein binding of each compound was determined in plasma via equilibrium dialysis employing RED Plates (ThermoFisher Scientific, Rochester, NY). Plasma was added to the 96 well plate containing test compound and mixed thoroughly for a final concentration of 5 µM. Subsequently, an aliquot of the plasma-compound mixture was transferred to the cis chamber (red) of the RED plate, with an phosphate buffer (25 mM, pH 7.4) in the trans chamber. The RED plate was sealed and incubated for 4 hours at 37°C with shaking. At completion, aliquots from each chamber were diluted 1:1 with either plasma (cis) or buffer (trans) and transferred to a new 96 well plate, at which time ice-cold acetonitrile containing internal standard (50 ng/mL carbamazepine) (2 volumes) was added to extract the matrices. The plate was centrifuged (3000 rcf, 10 min) and supernatants transferred and diluted 1:1 (supernatant: water) into a new 96 well plate, which was then sealed in preparation for LC/MS/MS analysis. Each compound was assayed in triplicate within the same 96-well plate. Fraction unbound was determined using the following equation F = Concbuffer u Conc plasma Intrinsic clearance: Human or rat hepatic microsomes (0.5 mg/mL) and 1 µM test compound were incubated in 100 mM potassium phosphate pH 7.4 buffer with 3 mM MgCl2 at 37°C with constant shaking. After a 5 min preincubation, the reaction was initiated by addition of NADPH (1 mM). At selected time intervals (0, 3, 7, 15, 25, and 45 min), aliquots were taken and subsequently placed into a 96-well plate containing cold acetonitrile with internal standard (50 ng/mL carbamazepine). Plates were then centrifuged at 3000 rcf (4° C) for 10 min, and the supernatant was transferred to a separate 96-well plate and diluted 1:1 with water for LC/MS/MS analysis. The in vitro half-life (T 1/2, min, Eq. 1), intrinsic clearance (CLint, mL/min/kg, Eq. 2) and subsequent predicted hepatic clearance (CLhep, mL/min/kg, Eq. 3) was determined S13

In data set [2] the target is T1, CYP450 3A4 (Homo sapiens, UniProt P08684).
T1 construct: 0.1 mg/mL human liver microsomes (HLM); from tissue; host or cells: human liver microsomes
Kind of data set: Inhibition of cytochrome P450 enzymes in human liver microsomes, 3A4. The data set is classed as in vitro ADME. As for the experimental part: Inhibition of Cytochrome P450 Enzymes: A cocktail of substrates for cytochrome P450 enzymes (1A2: Phenacetin, 10 µM; 2C9: Diclofenac, 5 µM; 2D6: Dextromethorphan, 5 µM; 3A4:
Midazolam, 2 µM) were mixed for cocktail analysis. For P450 2C19, the substrate stock (Mephenytoin, 40 µM )and substrate mix were prepared separately for discrete analysis. The […]
positive control for pan-P450 inhibition (miconazole) was included alongside each test compound […]
A reaction mixture of 100 mM Kpi, pH 7.4, 0.1 mg/mL human liver microsomes (HLM) and Substrate Mix is prepared and aliquoted into a 96-deepwell block. Test compound and positive control (in duplicate) were then added such that the final concentration of test compound ranged from 0.1 – 30 µM. The plate was vortexed briefly and then pre-incubated at 37 °C while shaking for 15 minutes. The reaction was initiated with the addition of NADPH (1 mM final concentration). The incubation continued for 8 min and the reaction quenched by 2x volume of cold acetonitrile containing internal standard (50 nM carbamazepine). The plate was centrifuged for 10 minutes (4000 rcf, 4°C) and the resulting supernatant diluted 1:1 with water for LC/MS/MS analysis. A 12 point standard curve of substrate metabolites over the range of 0.98 nM to 2000 […]
Samples were analyzed via electrospray ionization (ESI) on an AB Sciex API-4000 (Foster City, CA) triple-quadrupole instrument that was coupled with Shimadzu LC-10AD pumps (Columbia, MD) and a Leap Technologies CTC PAL auto-sampler (Carrboro, NC). Analytes were separated by gradient elution using a Fortis C18 3.0 x 50 mm, 3 µm column (Fortis Technologies Ltd, Cheshire, UK) thermostated at 40°C. HPLC mobile phase A was 0.1% formic acid in water (pH unadjusted), mobile phase B was 0.1% formic acid in acetonitrile (pH unadjusted). The gradient […]
90% B for 0.1 min and returned to 10% B in 0.1 min followed by a re-equilibration (0.9 min). The total run time was 2.5 min and the HPLC flow rate was 0.5 mL/min. The source temperature was set at 500°C and mass spectral analyses were performed using multiple reaction monitoring (MRM), with transitions specific for each compound utilizing a Turbo-Ionspray® source in positive ionization mode (5.0 kV spray voltage).
The IC50 values for each compound were obtained for the individual CYP enzymes by quantitating the inhibition of metabolite formation for each probe substrate. A 0 µM compound condition (or control) was set to 100% enzymatic activity and the effect of increasing test compound concentrations on enzymatic activity could then be calculated from the % of control activity.
Curves were fitted using XLfit 5.2.2 (four-parameter logistic model, equation 201) to determine the concentration that produces half-maximal inhibition (IC50).

T1 sequence (P08684 whole entry): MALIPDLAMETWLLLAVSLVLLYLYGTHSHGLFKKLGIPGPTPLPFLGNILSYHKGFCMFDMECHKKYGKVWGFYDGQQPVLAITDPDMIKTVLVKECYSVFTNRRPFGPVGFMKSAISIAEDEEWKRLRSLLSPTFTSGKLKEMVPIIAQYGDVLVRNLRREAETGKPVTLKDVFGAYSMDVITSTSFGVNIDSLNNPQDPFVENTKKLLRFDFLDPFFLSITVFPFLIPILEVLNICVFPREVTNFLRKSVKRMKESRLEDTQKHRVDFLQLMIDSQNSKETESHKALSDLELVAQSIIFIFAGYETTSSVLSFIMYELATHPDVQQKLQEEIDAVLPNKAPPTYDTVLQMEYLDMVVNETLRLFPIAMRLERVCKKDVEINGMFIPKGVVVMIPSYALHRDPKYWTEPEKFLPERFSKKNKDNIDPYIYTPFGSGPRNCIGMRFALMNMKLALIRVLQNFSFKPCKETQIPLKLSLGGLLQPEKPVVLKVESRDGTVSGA

In the case of `Cn1nc(-c2ccnn2C)cc1CNC(=O)c1cc(-n2cccn2)ccc1Cl` [compound 5], the fraction unbound at 4 h, 5 µM in data set [1] turned out to be 0.143. Besides, in data set [2], the IC50 is more than 30 µM.
Turning to `Cc1nc2c(F)cccc2cc1CNC(=O)c1cc(-n2cccn2)ccc1Cl` [compound 7], the fraction unbound at 4 h, 5 µM in data set [1] worked out at 0.053. In data set [2], this molecule showed an IC50 of 9 µM.
In the same order, the values of `Cc1nc(C2CC2)ccc1CNC(=O)c1cc(-n2cccn2)ccc1Cl` [compound 8] are 0.063 and 23.8 µM.
Regarding `Cc1nc2ccccc2cc1CNC(=O)c1cc(-n2cccn2)ccc1Cl` [compound 6], the fraction unbound at 4 h, 5 µM in data set [1] amounted to 0.037. The molecule further returned a half-inhibitory concentration (IC50) in data set [2] of 8.8 µM.
For `Cn1cc(-c2cc(CNC(=O)c3cc(-c4ccco4)ccc3Cl)n(C)n2)cn1` [compound 4], in that order: 0.063 and more than 30 µM.
